Values of other authors, collected in US8236821B2, “Substituted N-phenyl-5-phenyl-pyrazolin-3-yl amides as cannabinoid receptor antagonists/inverse agonists useful for treating obesity” (Jenrin Discovery, Inc., priority 2008, dated 2012).

Details: type 2 diabetes patients not treated with other anti-diabetic medications; six months of treatment; baseline value 7.9; placebo reduction 0.3%

Cc1c(C(=O)NN2CCCCC2)nn(-c2ccc(Cl)cc2Cl)c1-c1ccc(Cl)cc1 [rimonabant]
HbA1c levels lowered: 0.8%
